The source made the active and inactive calls. The calls are words filed in the database; no cut-off is given here.
Legend:
[1] = tested on: Mus musculus; test: Toxicity in NCr nu/nu mouse xenografted with human MDA-MB-231 cells assessed as body weight loss at 1 to 10 mg/kg, po qd administered for 23 days measured twice a week during compound dosing; assay type: organism-based; conditions: in vivo, 552 h
[2] = Protein binding in rat plasma; assay type: ADME, cell-free; conditions: read-out: PPB
[3] = Antiproliferative activity against human Burkitt lymphoma cells after 72 hrs by CellTiter-Glo assay; assay type: functional, cell-based; conditions: Burkitt lymphoma cell
[4] = Oral bioavailability in cynomolgus monkey at 3 mg/kg by LC-ESI-TOF/MS or LC-ESI-MS/MS method; assay type: ADME, organism-based, Macaca fascicularis; conditions: in vivo
[5] = Antiproliferative activity against human multiple myeloma cells after 72 hrs by CellTiter-Glo assay; assay type: functional, cell-based; conditions: Multiple myeloma cell
[6] = Antiproliferative activity against human MCL cells after 72 hrs by CellTiter-Glo assay; assay type: functional, cell-based
[7] = tested on: MDA-MB-231; test: Growth inhibition of human MDA-MB-231 cells after 72 hrs by CellTiter-Glo assay; assay type: functional, cell-based
[8] = tested on: TMD8; test: Antitumor activity against human TMD8 cells xenografted in NOD SCID mouse assessed as tumor growth inhibition at 10 mg/kg, po qd administered for 14 days relative to control; assay type: functional; conditions: 336 h, read-out: TGI
[9] = Oral bioavailability in Sprague-Dawley rat at 10 mg/kg by LC-ESI-TOF/MS or LC-ESI-MS/MS method; assay type: ADME, organism-based; conditions: in vivo
[10] = Protein binding in mouse plasma; assay type: ADME, cell-free; conditions: read-out: PPB
[11] = in vitro; conditions: human, Caco-2
[12] = Antitumor activity against human HBL1 cells xenografted in NOD SCID mouse assessed as tumor growth inhibition at 1 mg/kg, po qd administered for 12 days relative to control; assay type: functional; conditions: 288 h, read-out: TGI
[13] = tested on: Mus musculus; test: In vivo inhibition of MNK1/2 in human TMD8 cells xenografted in NOD SCID mouse assessed as reduction in eIF4E phosphorylation at Ser209 administered as po qd for 14 days measured over 24 hrs post last dose by Western blot method; assay type: functional, organism-based
[14] = Antiproliferative activity against human AML cells after 72 hrs by CellTiter-Glo assay; assay type: functional, cell-based
[15] = Protein binding in human plasma; assay type: ADME, cell-free; conditions: read-out: PPB
[16] = Therapeutic index, ratio of tumor growth inhibition of human HBL1 cells xenografted in NOD SCID mouse to body weight loss in NOD SCID mouse xenografted with human HBL1 cells
[17] = target: T1, MAP kinase-interacting serine/threonine-protein kinase 1/2 (Homo sapiens, UniProt Q9HBH9+Q9BUB5); test: Inhibition of MNK1/2 in human TMD8 cells assessed as decrease in IL-8 mRNA half life at 10 uM incubated for 24 hrs by TaqMan assay relative to control; assay type: cell-based
[18] = target: T1, MAP kinase-interacting serine/threonine-protein kinase 1/2; test: Inhibition of MNK1/2 in human TMD8 cells assessed as decrease in IL-6 mRNA half life at 10 uM incubated for 24 hrs by TaqMan assay relative to control; assay type: cell-based
[19] = Antiproliferative activity against human ALCL cells after 72 hrs by CellTiter-Glo assay; assay type: functional, cell-based
[20] = tested on: Mus musculus; test: Toxicity in NOD SCID mouse xenografted with human HBL1 cells assessed as body weight loss at 1 to 10 mg/kg, po qd administered for 12 days measured twice a week during compound dosing; assay type: organism-based; conditions: in vivo, 288 h
[21] = tested on: Mus musculus; test: Toxicity in NOD SCID mouse xenografted with human TMD8 cells assessed as body weight loss at 1 to 10 mg/kg, po qd administered for 14 days measured twice a week during compound dosing; assay type: organism-based; conditions: in vivo, 336 h
[22] = target: T1, MAP kinase-interacting serine/threonine-protein kinase 1/2; test: Inhibition of MNK1/2 in human TMD8 cells assessed as decrease in TNF-alpha mRNA half life at 10 uM incubated for 24 hrs by TaqMan assay relative to control; assay type: cell-based
[23] = Metabolic stability in rat liver microsomes assessed as parent compound remaining at 1 uM after 30 mins by LC-ESI-TOF/MS method; assay type: ADME, microsome; conditions: read-out: Stability
[24] = Oral bioavailability in Beagle dog at 3 mg/kg by LC-ESI-TOF/MS or LC-ESI-MS/MS method; assay type: ADME, organism-based, Canis lupus familiaris; conditions: in vivo
[25] = Antitumor activity against human HBL1 cells xenografted in NOD SCID mouse assessed as tumor growth inhibition at 10 mg/kg, po qd administered for 12 days relative to control; assay type: functional; conditions: 288 h, read-out: TGI
[26] = target: Serine/threonine-protein kinase 17A (Homo sapiens, UniProt Q9UEE5); test: Inhibition of DRAK1 (unknown origin)
[27] = Protein binding in monkey plasma; assay type: ADME, cell-free, Macaca mulatta; conditions: rhesus monkey, read-out: PPB
[28] = Antiproliferative activity against human DLBCL cells after 72 hrs by CellTiter-Glo assay; assay type: functional, cell-based
[29] = Protein binding in dog plasma; assay type: ADME, cell-free, Canis lupus familiaris; conditions: read-out: PPB
[30] = target: T1, MAP kinase-interacting serine/threonine-protein kinase 1/2; test: Inhibition of MNK1/2 in human TMD8 cells assessed as decrease in IL-6 levels after 48 hrs by ELISA; assay type: cell-based
[31] = target: T1, MAP kinase-interacting serine/threonine-protein kinase 1/2; test: Inhibition of MNK1/2 in human TMD8 cells assessed as decrease in IL-8 levels after 48 hrs by ELISA; assay type: cell-based
[32] = Antiproliferative activity against human T-ALL cells after 72 hrs by CellTiter-Glo assay; assay type: functional, cell-based
[33] = target: Dual specificity protein kinase CLK4 (Homo sapiens, UniProt Q9HAZ1); test: Inhibition of CLK4 (unknown origin)
[34] = physchem; conditions: octanol/water
[35] = target: T1, MAP kinase-interacting serine/threonine-protein kinase 1/2; test: Inhibition of MNK1/2 in human TMD8 cells assessed as decrease in eIF4E phosphorylation at Ser209 after 2 hrs by immunoblot method; assay type: cell-based
[36] = Therapeutic index, ratio of tumor growth inhibition of human TMD8 cells xenografted in NOD SCID mouse to body weight loss in NOD SCID mouse xenografted with human TMD8 cells
[37] = Antiproliferative activity against human CML cells after 72 hrs by CellTiter-Glo assay; assay type: functional, cell-based
[38] = target: Eukaryotic translation initiation factor 4E-binding protein 1 (Homo sapiens) (UniProt Q13541); test: Effect on 4E-BP1 phosphorylation at Thr37/46 in human TMD8 cells at 0.01 to 10 uM after 2 hrs by immunoblot method; assay type: cell-based
[39] = Oral bioavailability in Balb/c mouse at 10 mg/kg by LC-ESI-TOF/MS or LC-ESI-MS/MS method; assay type: ADME, organism-based; conditions: in vivo
[40] = organism: Homo sapiens; test: Effect on MAPK phosphorylation at Thr202/Tyr204 in human TMD8 cells at 0.01 to 10 uM after 2 hrs by immunoblot method; assay type: cell-based
[41] = tested on: MDA-MB-231; test: Antitumor activity against human MDA-MB-231 cells xenografted in NCr nu/nu mouse assessed as tumor growth inhibition at 1 to 10 mg/kg, po qd administered for 23 days relative to control; assay type: functional
[42] = Antiproliferative activity against human B-ALL cells after 72 hrs by CellTiter-Glo assay; assay type: functional, cell-based
[43] = tested on: Mus musculus; test: In vivo inhibition of MNK1/2 in human TMD8 cells xenografted in NOD SCID mouse assessed as reduction in eIF4E phosphorylation at Ser209 at 1 mg/kg, po qd administered for 14 days measured over 8 hrs post last dose by Western blot method relative to control; assay type: functional
[44] = target: T1, MAP kinase-interacting serine/threonine-protein kinase 1/2; test: Inhibition of MNK1/2 in human TMD8 cells assessed as decrease in TNF-alpha levels after 48 hrs by ELISA; assay type: cell-based
[45] = Antiproliferative activity against human B-PLL cells after 72 hrs by CellTiter-Glo assay; assay type: functional, cell-based
[46] = tested on: TMD8; test: Antitumor activity against human TMD8 cells xenografted in NOD SCID mouse assessed as tumor growth inhibition at 1 mg/kg, po qd administered for 14 days relative to control; assay type: functional; conditions: 336 h, read-out: TGI
[47] = Metabolic stability in mouse liver microsomes assessed as parent compound remaining at 1 uM after 30 mins by LC-ESI-TOF/MS method; assay type: ADME, microsome; conditions: read-out: Stability
[48] = tested on: TMD8; test: Effect on 4E-BP1 expression in human TMD8 cells after 2 hrs by immunoblot method; assay type: functional, cell-based
[49] = Metabolic stability in human liver microsomes assessed as parent compound remaining at 1 uM after 30 mins by LC-ESI-TOF/MS method; assay type: ADME, microsome; conditions: read-out: Stability
[50] = Therapeutic index, ratio of tumor growth inhibition of human MDA-MB-231 cells xenografted in NCr nu/nu mouse to body weight loss in NCr nu/nu mouse xenografted with human MDA-MB-231 cells

Serine/threonine-protein kinase 17A, sequence (Q9UEE5 whole entry): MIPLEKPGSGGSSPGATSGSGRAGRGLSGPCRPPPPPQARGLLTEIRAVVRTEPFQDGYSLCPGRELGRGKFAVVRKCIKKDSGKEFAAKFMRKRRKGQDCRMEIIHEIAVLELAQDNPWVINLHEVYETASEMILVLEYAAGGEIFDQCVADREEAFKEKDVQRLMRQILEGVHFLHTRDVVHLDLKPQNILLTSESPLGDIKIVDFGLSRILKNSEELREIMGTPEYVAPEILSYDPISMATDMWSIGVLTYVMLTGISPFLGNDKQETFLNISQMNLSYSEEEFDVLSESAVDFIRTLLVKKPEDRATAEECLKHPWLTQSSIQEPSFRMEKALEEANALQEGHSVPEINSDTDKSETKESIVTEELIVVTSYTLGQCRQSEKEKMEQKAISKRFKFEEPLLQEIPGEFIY
Eukaryotic translation initiation factor 4E-binding protein 1 (Homo sapiens), sequence (Q13541 whole entry): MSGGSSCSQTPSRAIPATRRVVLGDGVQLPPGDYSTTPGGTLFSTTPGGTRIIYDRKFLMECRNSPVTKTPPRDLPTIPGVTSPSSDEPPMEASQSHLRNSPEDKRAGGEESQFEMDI
Dual specificity protein kinase CLK4, sequence (Q9HAZ1 whole entry): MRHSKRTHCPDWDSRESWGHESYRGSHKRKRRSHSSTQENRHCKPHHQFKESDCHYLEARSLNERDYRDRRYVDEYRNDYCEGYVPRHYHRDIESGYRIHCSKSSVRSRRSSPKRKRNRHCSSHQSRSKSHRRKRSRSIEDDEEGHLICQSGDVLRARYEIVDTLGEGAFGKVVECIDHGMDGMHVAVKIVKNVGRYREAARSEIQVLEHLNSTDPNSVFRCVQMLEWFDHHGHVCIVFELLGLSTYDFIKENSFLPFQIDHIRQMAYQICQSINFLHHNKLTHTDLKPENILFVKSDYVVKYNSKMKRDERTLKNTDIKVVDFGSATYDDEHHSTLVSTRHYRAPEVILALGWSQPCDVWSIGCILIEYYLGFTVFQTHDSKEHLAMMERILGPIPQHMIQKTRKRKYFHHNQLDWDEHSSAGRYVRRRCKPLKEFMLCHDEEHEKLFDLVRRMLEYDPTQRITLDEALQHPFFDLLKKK

Question: What does the source list for `Cc1cc(Nc2cc(N)ncn2)c(=O)n2c1C(=O)NC21CCCCC1` [TOMIVOSERTIB]?
Answer: Activity [1]: Non-Toxic; fraction unbound [2]: 0.5; IC50 [3]: > 30 µM; bioavailability [4]: 24%; IC50 [5]: < 10 µM; IC50 [6]: > 30 µM; growth inhibition (GI) [7]: inactive; inhibition in vivo at 10 mg/kg [8]: 75%; bioavailability [9]: 85%; fraction unbound [10]: 0.5; Papp A→B at 2 h, 5 µM [11]: 7.1 ×10⁻⁶ cm/s; inhibition in vivo at 1 mg/kg [12]: 66%; IC90 [13]: 0.376 µM; IC50 ([13]; Mus musculus, TMD8): 0.0158 µM; IC50 [14]: > 30 µM; fraction unbound [15]: 0.5; TI [16]: >=10; fold change (FC) [17]: 1.5 to 2; fold change (FC) [18]: 1.5 to 2; IC50 [19]: > 30 µM; Activity [20]: Non-Toxic; Activity [21]: Non-Toxic; fold change (FC) [22]: 1.5 to 2; remaining at 0.5 h, 1 µM [23]: 93%; bioavailability [24]: > 100%; inhibition in vivo at 10 mg/kg [25]: 96%; IC50 [26]: 0.131 µM; fraction unbound [27]: 0.5; IC50 [28]: < 10 µM; fraction unbound [29]: 0.5; inhibition [30]: Dose-dependent effect; inhibition [31]: Dose-dependent effect; IC50 [32]: > 30 µM; IC50 [33]: 0.787 µM; logP [34]: 2.7; inhibition [35]: Dose-dependent effect; TI [36]: >=10; IC50 [37]: > 30 µM; Activity [38]: inactive; bioavailability [39]: 79%; Activity [40]: inactive; TGI [41]: >100%; IC50 [42]: > 30 µM; inhibition in vivo at 1 mg/kg [43]: 80%; inhibition [44]: Dose-dependent effect; IC50 [45]: > 30 µM; inhibition in vivo at 1 mg/kg [46]: 71%; remaining at 0.5 h, 1 µM [47]: 90%; Activity [48]: inactive; remaining at 0.5 h, 1 µM [49]: 87%; TI [50]: >=10

— ChEMBL document CHEMBL4043290, “Structure-based Design of Pyridone-Aminal eFT508 Targeting Dysregulated Translation by Selective Mitogen-activated Protein Kinase Interacting Kinases 1 and 2 (MNK1/2) Inhibition” (J Med Chem, 2018)
